Literature values in patent US7517900B2, “Pyrazole derivatives as cannabinoid receptor modulators” (Bristol-Myers Squibb Company, priority 2003, dated 2009).

Assays:
human subjects = settings: 16 week trial period, Phase IIb
[1] = chronic administration for two weeks

SMILES	body weight in human subjects (human subjects)	body weight [1]
Cc1c(C(=O)NN2CCCCC2)nn(-c2ccc(Cl)cc2Cl)c1-c1ccc(Cl)cc1 [SR-141716]	dose-dependently reduced body weight	–
Cc1c(C(=O)NN2CCCCC2)nn(-c2ccc(Cl)cc2Cl)c1-c1ccc(I)cc1 [AM-251]	–	substantial body weight reduction
